Data published in US8232314B2, “Compounds that protect against sensory hair cell death” (University of Washington, priority 2005, dated 2012).
Entries after “also recorded” stand apart in the source; their conditions may differ.

Tests used:
[1] = system: hair cells; assay: High-throughput screen of FDA approved compound library for protection against aminoglycoside-induced hair cell death; type: in vivo, zebrafish; conditions: library of 1040 FDA approved compounds, high-throughput assay
Procedure: (§1) Zebrafish eggs of the AB/Wik wild-type strain were generated and maintained until 5 days post-fertilization temporally corresponding to the developmental maturation of the lateral line hair cells. 5 day postfertilization larvae were prelabeled with the fluorescent dyes FM 1-43, 3 μM (30 sec), and Yo-Pro-1, 2 μM (30 min) to identify the hair cells. Larvae were arrayed into 96 well plates containing embryo media. Synthetic small molecules from the Chembridge Corporation, San Diego, were transferred into the wells for a final concentration of 10 μM (0.05% DMSO). Following a one hour exposure to the compounds fish were treated with neomycin for an additional hour. Larvae were then analyzed in vivo with an epifluorescent Zeiss Axiovert 200M microscope with automated stage and a 40× objective to determine hair cell viability following neomycin exposure.
A library of 1040 FDA approved compounds (NINDS Custom Collection II, Microsource, Inc.) were screened using a high-throughput assay.

[2] = system: zebrafish lateral line hair cells; assay: Neomycin-induced hair cell death of zebrafish lateral line hair cells; type: in vivo; conditions: 5 dpf larvae, 1 hour exposure to 200 μM, FM 1-43 and Yo-Pro-1 labeling
Procedure: FIGS. 1A and 1B illustrate labeling and neomycin-induced hair cell death of zebrafish lateral line hair cells. FIG. 1A depicts 5 days post fertilization (dpf) larvae hair cells labeled with FM 1-43 (red) to identify the cytoplasm of hair cells and Yo-Pro-1 (green) labeling the nucleus. […] Cytoplasmic (red) and nuclear fragments (green) are visible in FIG. 1B.
(§2) Larvae were placed in a transfer device fashioned from a 50 ml conical tube with one end cut off and a mesh cover at the bottom. FM 1-43 (n-(3-triethylammoniumpropyl)-4-(4-dibutylamino]-styryl)pyridinium dibromide; Molecular Probes, Eugene, Oreg.) labeling of lateral line neuromasts was achieved by immersing free swimming larvae in 3 μM FM 1-43 in embryo medium for 30 seconds followed by 3 rinses in embryo medium. Using this procedure FM 1-43 is restricted to hair cells in neuromasts (Seiler and Nicolson, J Neurobiol (1999) 41:424-34). Yo-Pro-1 (Molecular Probes, Eugene, Oreg.) labeling of hair cell nuclei in lateral line neuromasts was achieved using a similar technique, incubating larvae in 2 μM Yo-Pro-1 in embryo medium for 30 minutes followed by 3 rinses. Using this procedure only the nuclei of hair cells are labeled.
Neomycin sulfate from a 50 mM stock solution in dH2O (Sigma) was diluted in embryo medium to final concentrations of 25 μM, 50 μM, 100 μM, 200 μM and 400 μM in each well of a six-well culture plate. […]

[3] = system: lateral line hair cells of zebrafish; assay: Protection against cisplatin-induced lateral line hair cell death; type: in vivo, zebrafish (Danio rerio); conditions: for protective against toxic effects of cisplatin on hair cells (identified by screening): exemplified platinum coordination complex (cisplatin)
Procedure: as §2
Cisplatin from a 200 mM stock solution in DMSO (Sigma) was diluted in embryo medium to final concentrations of 300 μM, 500 μM, and 1 mM (0.05% DMSO) in each well of a six-well culture plate. Following vital dye staining live free-swimming five dpf larvae were transferred from control (neomycin-free) embryo medium to cisplatin-containing medium and incubated for 3 h.
To determine if compound F5 is protective against the otoxic effects of cisplatin, larvae were pretreated with compound F5 10 μm for 1 hour, exposed the larvae to 0, 300 μM, 500 μM and 1 mM of cisplatin for 3 hours, counted hair cells and compared to untreated controls.

[4] = system: lateral line hair cells of zebrafish; assay: Protection of zebrafish lateral line hair cells against neomycin-induced hair cell death; type: in vivo, zebrafish (Danio rerio); set-up: protection of hair cells from neomycin induced hair cell death in the small molecule screen: dose or concentration left out as unconfirmed; conditions: for protection of hair cells from neomycin induced hair cell death in the small molecule screen: 5 dpf larvae, pretreated with compound at 10 μm, exposed to neomycin, hair cells evaluated after 1 hour; for long lasting protection, hair cell counts (FM 1-43) after neomycin: 200 μm neomycin, 24 hours post treatment; for protective against toxic effects of neomycin on hair cells (identified by screening): exemplified aminoglycoside (neomycin); for protective effect against neomycin (dose finding): pretreated at 0-200 μM compound, neomycin 200 μM, compared to controls
Procedure: Zebrafish embryos were produced by paired matings of adult fish maintained at 28.5° C. in the University of Washington zebrafish facility. Beginning at 4 days post fertilization (dpf), larvae were fed live paramecia. Larvae were maintained at a density of 50 per 100 mm^2 petri dish in embryo medium (1 mM MgSO4, 120 μM KH2PO4, 74 μM Na2HPO4, 1 mM CaCl2, 500 μM KCl, […], and 500 μM NaHCO3 in dH2O) in a tissue incubator at 28.5° C. All animal procedures were approved by the University of Washington institutional Animal Care and Use Committee,
as §2, §1
Neomycin sulfate from a 50 mM stock solution in dH2O (Sigma) was diluted in embryo medium to final concentrations of 25 μM, 50 μM, 100 μM, 200 μM and 400 μM in each well of a six-well culture plate. Following vital dye staining live free-swimming five dpf larvae were transferred from control (neomycin-free) embryo medium to neomycin-containing medium and incubated for 1 h. For time-lapse imaging, neomycin-containing medium was added directly to the imaging chamber.
In order to identify compounds that protect hair cells of the lateral line from the toxic effects of the aminoglycoside neomycin, 10,960 small molecules were screened. 5 dpf larvae were double labeled with the fluorescent dyes FM 1-43 and Yo-Pro-1, pretreated with the compounds at a dose of 10 μm, exposed to […], and their hair cells evaluated after 1 hour, FIG. 1.
To identify the optimal dose for evaluating the compounds' protective effects, larvae were pretreated with both compounds at 0, 1, 10, 50, 100 and 200 μM, and exposed to neomycin at 200 μM and compared to controls.
The neomycin susceptibility of larvae pretreated with 10 μM of compound F5 and controls at 0, 25, 100, 200 and 400 μm neomycin were compared.
To evaluate the protection conferred by compounds F5 and H10, hair cell counts were compared using the fluorescent dye FM 1-43 to identify hair cells in larvae pretreated with compound and controls, exposed to 200 μm neomycin after 24 hours, 48 hours and 72 hours. […] At 48 hours and beyond the protective effects of compound F5 and H10 cannot be determined as the larvae have repopulated the neuromasts with regenerated hair cells, FIG. 5.

[5] = system: lateral line hair cells; assay: Mechanotransduction-dependent activity of lateral line hair cells measured by FM 1-43 uptake; type: in vivo, zebrafish; conditions: pretreated 1 hour at 10 μm, FM 1-43 3 μM for 30 seconds
Procedure: To test whether compounds F5 and H10 inhibit mechanotransduction-dependent activity of lateral line hair cells, larvae were incubated in the dye FM1-43. Larvae were pretreated with each compound for 1 hour at 10 μm and exposed to FM 1-43, 3 μM, for 30 seconds. […] Neither compound F5 nor compound H10 inhibited the uptake of FM1-43, FIG. 7.

## CC(COc1ccccc1)N(CCCl)Cc1ccccc1 (centres unmarked) [Phenoxybenzamine]
[1]
  protection against aminoglycoside-induced hair cell death (screen hit): protect against aminoglycoside-induced hair cell death

## neomycin
[2]
  hair cell death after neomycin exposure: undergo apoptotic death

## CCN(CC)CCOC(=O)C(c1ccccc1)C1CCCCC1 (centres unmarked) [Drofenine]
[1]
  protection against aminoglycoside-induced hair cell death (screen hit): protect against aminoglycoside-induced hair cell death

## COc1ccc(C(=O)NC(NC(=S)Nc2sc3c(c2C(N)=O)CCCC3)C(Cl)(Cl)Cl)cc1 (centres unmarked) [Compound H10, 2-{[({2,2,2-trichloro-1-[(4-methoxybenzoyl)amino]ethyl}amino)carbonothioyl]amino}-4,5,6,7-tetrahydro-1-benzothiophene-3-carboxamide]
[3]
  protective against toxic effects of cisplatin on hair cells (identified by screening): protective
[4]
  protection of hair cells from neomycin induced hair cell death in the small molecule screen: protect hair cells from neomycin induced hair cell death
  long lasting protection, hair cell counts (FM 1-43) after neomycin: Significant protection; also recorded: protective through 24 hours post neomycin treatment
  protective against toxic effects of neomycin on hair cells (identified by screening): protective
  protective effect against neomycin (dose finding): protective against neomycin
[4]; larvae pretreated at 0, 1, 10, 50, 100 and 200 μM compound, 200 μM neomycin
  optimal protective dose against 200 μM neomycin: 1 µM
[5]
  inhibition of FM 1-43 uptake (mechanotransduction-dependent activity): do not inhibit mechanotransduction-dependent activity; also recorded: do not prevent the rapid uptake of FM1-43

## NC(N)=NC(=O)c1nc(Cl)c(N2CCCCCC2)nc1N [N,N-hexamethyleneamiloride]
[1]
  protection against aminoglycoside-induced hair cell death (screen hit): protect against aminoglycoside-induced hair cell death

## Cc1cccc(C(=O)NC(NC(=S)Nc2sc3c(c2C(N)=O)CCCC3)C(Cl)(Cl)Cl)c1 (centres unmarked) [Compound A, 2-{{({2,2,2-trichloro-1-[(3-methylbenzoyl)amino]ethyl}amino)carbonothioyl]amino}-4,5,6,7-tetrahydro-1-benzothiophene-3-carboxamide]
[3]
  protective against toxic effects of cisplatin on hair cells (identified by screening): protective
[4]
  protective against toxic effects of neomycin on hair cells (identified by screening): protective

## COc1ccccc1OCCNCC(O)COc1cccc2[nH]c3ccccc3c12 (centres unmarked) [Carvedilol]
[1]
  protection against aminoglycoside-induced hair cell death (screen hit): protect against aminoglycoside-induced hair cell death

## NC(=O)c1c(NC(=O)CN2CCCCC2)sc2c1CCCC2 [Compound D, 2-[(1-piperidinylacetyl)amino]-4,5,6,7-tetrahydro-1-benzothiophene-3-carboxamide]
[3]
  protective against toxic effects of cisplatin on hair cells (identified by screening): protective
[4]
  protective against toxic effects of neomycin on hair cells (identified by screening): protective

## Nc1c2c(nc3ccccc13)CCCC2 [9-amino-1,2,3,4-tetrahydroacridine]
[1]
  protection against aminoglycoside-induced hair cell death (screen hit): protect against aminoglycoside-induced hair cell death

## CCN1CCc2c(sc(NC(=O)Nc3ccc(Cl)cc3)c2C(N)=O)C1 [Compound F5, 2-({[(4-chlorophenyl)amino]carbonyl}amino)-6-ethyl-4,5,6,7-tetrahydrothieno[2,3-c]pyridine-3-carboxamide]
[3]
  protective against toxic effects of cisplatin on hair cells (identified by screening): protective
[3]; pretreated 10 μm for 1 hour, 0, 300 μM, 500 μM and 1 mM cisplatin for 3 hours
  protection against cisplatin induced hair cell death (hair cell counts): significant protection against cisplatin induced hair cell death; also recorded: protective against cisplatin-induced lateral Sine hair cell death
[4]; 10 μM compound pretreatment, 0, 25, 100, 200 and 400 μm neomycin
  neomycin susceptibility of pretreated larvae versus controls: less susceptible to neomycin than controls; also recorded: protects lateral line hair cells against neomycin
[4]
  protection of hair cells from neomycin induced hair cell death in the small molecule screen: protect hair cells from neomycin induced hair cell death
  long lasting protection, hair cell counts (FM 1-43) after neomycin: Significant protection; also recorded: protective through 24 hours post neomycin treatment
  protective against toxic effects of neomycin on hair cells (identified by screening): protective
  protective effect against neomycin (dose finding): protective against neomycin
[5]
  inhibition of FM 1-43 uptake (mechanotransduction-dependent activity): do not inhibit mechanotransduction-dependent activity; also recorded: do not prevent the rapid uptake of FM1-43

## NC(=O)c1c(NC(=O)c2ccc(Cl)c([N+](=O)[O-])c2)sc2c1CCCC2 [Compound C, 2-[(4-chloro-3-nitrobenzoyl)amino]-4,5,6,7-tetrahydro-1-benzothiophene-3-carboxamide]
[3]
  protective against toxic effects of cisplatin on hair cells (identified by screening): protective
[4]
  protective against toxic effects of neomycin on hair cells (identified by screening): protective

## NC(=O)c1c(NC(=O)Nc2ccc(Cl)cc2)sc2c1CCCC2 [Compound B, 2-({[(4-chlorophenyl)amino]carbonyl}amino)-4,5,6,7-tetrahydro-1-benzothiophene-3-carboxamide]
[3]
  protective against toxic effects of cisplatin on hair cells (identified by screening): protective
[4]
  protective against toxic effects of neomycin on hair cells (identified by screening): protective
